Laboratory results taken from the CheMixHub viscosity set.

Assay: xn = mol fraction of the nth substance listed

C=C(C)[C@@H]1CC=C(C)CC1 + C=CC(C)(O)CCC=C(C)C
viscosity [mPa·s], 101.33 kPa
Conditions	x1 = 0.0422	x1 = 0.1332	x1 = 0.2273	x1 = 0.3523	x1 = 0.4816	x1 = 0.562	x1 = 0.6389	x1 = 0.7679	x1 = 0.8478	x1 = 0.9236
298.15 K	4.062	3.237	2.695	2.072	1.626	1.429	1.282	1.101	1.013	0.933
313.15 K	2.37	2.025	1.731	1.427	1.196	1.086	0.998	0.877	0.814	0.755

CC(=O)CC(C)C + CC(C)CO
viscosity [mPa·s], 101 kPa
Conditions	298.15 K	303.15 K	308.15 K
x2 = 0.3997	–	0.703	0.656
x2 = 0.4937	0.851	0.786	0.73

CC(=O)CC(C)C + CC(=O)O
viscosity [mPa·s]
Conditions	293.15 K	298.15 K	308.15 K	318.15 K
101.32 kPa, x1 = 0.048	1.179	1.085	0.9387	0.82
101.32 kPa, x1 = 0.102	–	–	–	0.7844
101.32 kPa, x1 = 0.103	1.122	1.037	0.8955	–
101.32 kPa, x1 = 0.164	1.065	0.9866	0.8505	0.7456
101.32 kPa, x1 = 0.233	–	–	–	0.708
101.32 kPa, x1 = 0.234	1.004	0.9325	0.803	–
101.32 kPa, x1 = 0.313	–	–	–	0.6696
101.32 kPa, x1 = 0.314	0.9417	0.8743	0.7592	–
101.32 kPa, x1 = 0.405	–	–	–	0.6271
101.32 kPa, x1 = 0.406	0.8773	0.8108	0.7072	–
101.32 kPa, x1 = 0.514	0.8105	0.752	0.6636	0.5844
101.32 kPa, x1 = 0.646	–	–	–	0.5401
101.32 kPa, x1 = 0.647	0.7427	0.688	0.6078	–
101.32 kPa, x1 = 0.805	–	0.6272	0.5546	0.4944
101.32 kPa, x1 = 0.806	0.6691	–	–	–
101.33 kPa, x1 = 0.048	1.179	1.085	0.9387	0.82
101.33 kPa, x1 = 0.102	–	–	–	0.7844
101.33 kPa, x1 = 0.103	1.122	1.037	0.8955	–
101.33 kPa, x1 = 0.164	1.065	0.9866	0.8505	0.7456
101.33 kPa, x1 = 0.233	–	–	–	0.708
101.33 kPa, x1 = 0.234	1.004	0.9325	0.803	–
101.33 kPa, x1 = 0.313	–	–	–	0.6696
101.33 kPa, x1 = 0.314	0.9417	0.8743	0.7592	–
101.33 kPa, x1 = 0.405	–	–	–	0.6271
101.33 kPa, x1 = 0.406	0.8773	0.8108	0.7072	–
101.33 kPa, x1 = 0.514	0.8105	0.752	0.6636	0.5844
101.33 kPa, x1 = 0.646	–	–	–	0.5401
101.33 kPa, x1 = 0.647	0.7427	0.688	0.6078	–
101.33 kPa, x1 = 0.805	–	0.6272	0.5546	0.4944
101.33 kPa, x1 = 0.806	0.6691	–	–	–

O=C1CCCCC1 + CCCCCO
303.15 K, 101 kPa
Conditions	viscosity [mPa·s]
x1 = 0.1012	2.388
x1 = 0.2586	1.983
x1 = 0.4201	1.737
x1 = 0.5809	1.622
x1 = 0.7407	1.565
